{
  "source": "patent US20140155609A9",
  "about": "“QUINOLINE DERIVATIVE COMPOUND, METHOD FOR PREPARING SAME, AND PHARMACEUTICAL COMPOSITION CONTAINING SAME” (Dong-A ST Co., Ltd., priority 2010, published 2014)",
  "key": {"normal rat": {"system": "normal rat", "assay": "Gastric emptying effect on normal rat", "assay_type": "in vivo, Sprague-Dawley rats", "procedure": "Gastric emptying activity of the compounds of the present invention was examined in the following experiment.\nSprague-Dawley rats with an age of 6 weeks were divided into groups according to weight, and acclimated for one week at a temperature of 22˜24° C. and a humidity of 60-80% while a standard diet and water were provided. Thereafter, they were starved for 24 hrs before an experiment while water was provided. From 3 hrs before the experiment, no more water was provided. A 3% hydroxy propyl methyl cellulose solution containing the compound of Example in an amount of 10 μg/kg was orally administered at a dose of 1 mL to each rat.\nAfter 45 min, a semi-solid test meal (0.05% phenol red solution containing 1.5% MC), prepared by mashing feeds in water, was orally administered in an amount of 2 mL to each rat. After 35 min, the SD rats were killed, and the stomach was excised, and weighed carefully lest the gut content was leaked. Subsequently, the stomach was washed with distilled water to remove the gut content, dried, and weighed again, in order to calculate the weight of the semi-solid test meal left in the gut. In Table 4, the control was orally administered with 1 mL of 3% […].\nGastric Emptying(%)=[1−(weight of semi-solid test meal left in gut/weight of semi-solid test meal at 0-time)]×100 [Equation 4] […]"}, "serotonin-1B receptor": {"biological_target": "T1, serotonin-1B receptor (Rattus norvegicus, UniProt P28564)", "T1 construct": "cell membranes of the cerebral cortex excised from male Winstar rats; from tissue; host or cells: rat cerebral cortex membranes (male Wistar rats)", "T1 sequence (P28564 whole entry)": "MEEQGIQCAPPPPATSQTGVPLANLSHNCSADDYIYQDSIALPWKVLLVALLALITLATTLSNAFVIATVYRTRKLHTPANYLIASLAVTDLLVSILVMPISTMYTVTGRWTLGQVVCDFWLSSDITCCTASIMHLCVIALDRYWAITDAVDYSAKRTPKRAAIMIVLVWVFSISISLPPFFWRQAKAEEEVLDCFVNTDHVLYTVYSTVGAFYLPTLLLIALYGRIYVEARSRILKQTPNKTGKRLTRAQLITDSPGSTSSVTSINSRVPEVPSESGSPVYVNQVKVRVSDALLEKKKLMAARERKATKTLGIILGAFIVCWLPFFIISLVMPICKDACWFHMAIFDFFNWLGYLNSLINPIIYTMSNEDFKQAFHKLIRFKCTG", "assay": "Assay for affinity for serotonin-1B receptor (125I cyanopindolol binding, rat cerebral cortex membranes)", "conditions": "10 μM compound, mean of two experiments", "procedure": "Compounds of the present invention were examined for affinity for the serotonin-1B receptor which can exert a relaxation effect on the stomach and relieve impaired gastric accommodation of functional dyspepsia patients in response to an agonist.\nIn a Tris-HCl buffer (50 mM Tris-HCl, pH 7.4, 120 mM NaCl, 5 mM KCl, 2 mM CaCl2, 1 mM MgCl2), 4 mg of cell membranes of the cerebral cortex excised from male Winstar rats, each weighing 175±25 g, was incubated at 37° C. for 1.5 hrs with […] of ^125[I] cyanopindolol (PerkinElmer, 100 μCi) and 10 μM of the compound of interest of the present invention per well. After completion of the incubation, the incubation mixture was filtered through Whatman GF/B filter (unifilter-96, Lot: 6005177, PerkinElmer) to separate ligand-bound receptors. These bound receptors were washed three times with 5 mL of a Tris-HCl buffer. Then, 10 mL of a scintillation cocktail (Lot: 03999, Fluka) was added, and reacted for 16 hrs or to measure a radiation activity using a beta-counter (Packcard) in order to calculate the quantity of ^125[I] cyanopindolol bound to the receptor.\nMeanwhile, 10 μM of serotonin (H9523, Sigma) was incubated in the presence of […] of ^125[I] cyanopindolol to determine a nonspecific binding value. The experiment was independently carried out twice, and receptor affinity was calculated using the following Equation 3. […]"}, "[1]": {"biological_target": "T2, human dopamine D2 receptor (Homo sapiens, UniProt P14416)", "T2 construct": "expressed in transfected cells; host or cells: CHO (Chinese hamster ovary) cells", "T2 sequence (P14416 whole entry)": "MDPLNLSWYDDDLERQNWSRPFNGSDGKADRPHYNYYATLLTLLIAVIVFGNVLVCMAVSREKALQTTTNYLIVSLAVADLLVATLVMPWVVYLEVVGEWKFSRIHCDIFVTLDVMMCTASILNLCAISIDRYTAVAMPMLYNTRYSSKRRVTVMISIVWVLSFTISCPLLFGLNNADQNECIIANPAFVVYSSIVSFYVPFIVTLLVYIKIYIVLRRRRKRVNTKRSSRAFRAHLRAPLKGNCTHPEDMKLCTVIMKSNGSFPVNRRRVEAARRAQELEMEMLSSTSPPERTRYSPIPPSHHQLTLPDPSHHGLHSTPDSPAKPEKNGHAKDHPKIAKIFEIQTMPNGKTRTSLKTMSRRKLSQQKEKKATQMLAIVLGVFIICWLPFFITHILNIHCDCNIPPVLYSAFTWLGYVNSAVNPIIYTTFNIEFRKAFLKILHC", "assay": "Assay for affinity for dopamine receptor (3H-spiperone competitive binding)", "conditions": "10 μM compound; 0.16 nM tritium spiperone; CHO cells transfected with human dopamine D2; mean of two experiments", "procedure": "Affinity of the compounds of the present invention for the dopamine-D2 receptor, which is found in the wall of the gastric tract of mammals and inhibits gastric motility, was determined by measuring competitive inhibition against the binding to the receptor of a radio-labeled ligand which is known for its affinity for the receptor. In this regard, the experiment was performed according to the method described in [Heys G et al. Mol. Endocrinol. 6:920, 1992] and [Grandy D K et al. Proc Natl Acad Sci USA. 86:9762, 1989].\nIn tris-HCl buffer ([…], pH 7.4, 120 mM NaCl, 5 mM KCl, 2 mM CaCl2, 1 mM MgCl2) 150 μg of Chinese hamster ovary (CHO) cells transfected with a human dopamine D2, gene were incubated at 25° C. for 120 min with 0.16 nM of tritium Spiperone (^3[H] Spiperon [NEN, 250 μCi]) and 10 μM of the compound of interest. After completion of the incubation, the incubation mixture was filtered through Whatman GF/B filter (unifilter-96 Lot: 6005177, PerkinElmer) to separate ligand-bound receptors. […] Then, 10 mL of a scintillation cocktail (Lot: 03999, Fluka) was added and reacted for 16 hrs or longer to measure radiation activity using a beta-counter (Packcard) in order to calculate the quantity of tritium spiperone bound to the receptor. […] The experiment was independently carried out twice, and receptor affinity was calculated using the following Equation 1. […]"}, "human 5-HT1A receptor": {"biological_target": "T3, human 5-HT1A receptor (Homo sapiens, UniProt P08908)", "T3 construct": "expressed in transfected cells; host or cells: CHO (Chinese hamster ovary) cells", "T3 sequence (P08908 1-422)": "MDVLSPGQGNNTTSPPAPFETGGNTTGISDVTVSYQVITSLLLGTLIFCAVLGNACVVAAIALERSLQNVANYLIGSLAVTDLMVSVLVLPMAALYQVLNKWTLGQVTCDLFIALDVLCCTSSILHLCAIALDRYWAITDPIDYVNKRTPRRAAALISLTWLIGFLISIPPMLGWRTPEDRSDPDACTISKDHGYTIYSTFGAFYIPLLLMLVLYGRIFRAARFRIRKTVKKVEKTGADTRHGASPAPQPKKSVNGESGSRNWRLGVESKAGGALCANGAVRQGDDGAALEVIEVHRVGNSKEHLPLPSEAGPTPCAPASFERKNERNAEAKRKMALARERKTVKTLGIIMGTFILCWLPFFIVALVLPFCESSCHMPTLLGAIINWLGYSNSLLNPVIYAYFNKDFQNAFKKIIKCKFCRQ", "assay": "Assay for affinity for serotonin-1A receptor (3H 8-OH-DPAT competitive binding)", "conditions": "10 μM compound; 1.5 nM 3[H] 8-OH-DPAT; CHO cells transfected with human 5-HT1A receptor; mean of two experiments", "procedure": "Compounds of the present invention were examined for affinity for the serotonin-1A receptor which can increase gastric accommodation in response to an agonist.\nIn tris-HCl buffer (50 mM Tris-HCl, pH 7.4, 120 mM NaCl, 5 mM KCl, 2 mM CaCl2, 1 mM MgCl2), 150 μg of Chinese hamster ovary (CHO) cells transfected with a human […] 5-HT1A receptor were incubated at 37° C. for 1.5 hrs with 1.5 nM of ^3[H] 8-OH-DPAT and 10 μM of the compound of interest of Example. After completion of the incubation, the incubation mixture was filtered through Whatman GF/B filter (unifilter-96, Lot: 6005177, PerkinElmer) to separate ligand-bound receptors. These bound receptors were washed three times with 5 mL of a Tris-HCl buffer. Then, 10 mL of a scintillation cocktail (Lot: 03999, Fluka) was added, and reacted for 16 hrs or longer with to measure radiation activity using a beta-counter (Packcard) in order to calculate the quantity of ^3[H] 8-OH-DPAT bound to the receptor.\nMeanwhile, 10 μM of metergoline was also incubated in the presence of 1.5 nM of ^3[H] 8-OH-DPAT to determine a nonspecific binding value. The experiment was independently carried out twice, and receptor affinity was calculated using the following Equation 2. […]"}},
  "data": [
    {"smiles": "CCOC(=O)CCC(=O)N1CCc2cc(OC)c(OC)c3c2[C@@H]1Cc1cc(OC)c(OC)cc1-3", "note": "[Example 1, (S)-4-oxo-4-(1,2,9,10-tetramethoxy-4,5,6a,7-tetrahydro-dibenzo[de,g]quinoline-6-yl)-butyric acid ethyl ester]", "values": [
      {"measurement": "Gastric Emptying (%)", "setting": "normal rat; dose 10 μg/kg oral, 45 min before semi-solid test meal, stomach excised 35 min after meal, control 24.3", "value": 47.8, "unit": "%"},
      {"measurement": "increase of gastric emptying compared to the control", "setting": "normal rat; normal rats, oral dose 10 μg/kg", "value": "roughly two-fold"},
      {"measurement": "Affinity (%)", "setting": "serotonin-1B receptor", "value": 92, "unit": "%"},
      {"measurement": "Affinity (%)", "setting": "[1]", "value": 46, "unit": "%"},
      {"measurement": "Affinity (%)", "setting": "human 5-HT1A receptor", "value": 41, "unit": "%"}
    ]}
  ]
}
